Assay [1] deals with Clostridium difficile 630. In words: MIC broth dilution per CLSI M11-A8, modified Brucella broth. In kind it is cell-based. Particulars: strain 630; Brucella broth mix + yeast, no blood/hemin; n = 12. On the procedure:
(§1) MIC experiments for Puupehenone were carried out in accordance with CLSI M11-A8 for broth dilutions. The levels of antimicrobial were achieved via serial dilution and listed as follows; 32 ug/mL, 16 ug/mL. 8 ug/mL, 4 ug/mL, 2 ug/mL, 1 ug/mL, 0.5 ug/mL, 0.25 ug/mL, 0.125 ug/mL, 0.0625 ug/mL/. Metranidazole was used a positive control. The only deviation from the CLSI was a modification to the media. […] This was noted due to comparisons with previous BHIS experiments. Thus, the media was modified to resemble the BHIS media, with only Brucella broth mix (28 g/L) and yeast (5 g/L). The reason for the decreased efficacy of the drug when in blood based media is still being investigated. The MICs against different C. difficile strains (ATCC9689, NAP1027, and 630 were determined for both Puupehone and Matranidazole See Table 1.

The test system of assay [2] is Clostridium difficile ATCC 9689. Described as above. In kind it is cell-based. Particulars: strain ATCC 9689; Brucella broth mix + yeast, no blood/hemin; n = 12. How it is done:
as §1

In assay [3] the test system is Clostridium difficile NAP1027. The description is as above. The conditions noted are these: strain NAP1027; Brucella broth mix + yeast, no blood/hemin; n = 12. The assay is classed as cell-based. On the procedure:
as §1

Assay [4] relates to C. difficile strain VPI 10463 or strain ATCC 9689. In words: 96-well growth inhibition test in BHIS media, optical density readout. Particulars: puupehenone in MeOH, 40 μL-well, Trial 1 (0 μL-well 0.0816). In kind it is cell-based, Clostridium difficile. On the procedure: Tests were performed in a Coy anaerobic chamber (Coy Labs Grass Lake, Mich.). The compound Puupehenone was dissolved in either methanol or DMSO for testing. Using a 96-well plate, 200 μL of BHIS media was added to 12 wells. One was the control (BHIS media alone). The sequential nine wells have increments of 5 μL of puupehenone. The remaining two wells have no puupehenone but one has 20 μL and another has 40 μL of methanol. These last wells are a separate test to determine if methanol influences the growth of C. difficile. Then 10 μL of C. difficile strain VPI 10463 or strain ATCC 9689 was added to each well except for the control. Trials with DMSO were performed in increments of 2 μL of puupehenone. Effects of puupehenone on C. difficile were tested based on optical density (e.g. OD500 nm, OD600 nm or OD630 nm, inter alia) using an optical reader as is standard in the art. Results

Molecules are shown by their SMILES.

`Cc1ncc([N+](=O)[O-])n1CCO` [Metranidazole, reference compound]: the minimal inhibitory concentration (MIC) in assay [1] was determined as 0.5 µg/mL; in assay [2], 0.25 µg/mL; in assay [3] it was 0.25 µg/mL.
For `CC1(C)CCC[C@]2(C)[C@H]3C=C4C=C(O)C(=O)C=C4O[C@@]3(C)CC[C@@H]12` [Puupehenone, puupehenone], the figures for the minimum inhibitory concentration (MIC) in assay [1], in assay [2] and in assay [3] were 8 µg/mL, 4 µg/mL and 8 µg/mL, respectively. In addition, the “optical density (growth of C. difficile)” value in assay [4] is 0.0742.
